Test: Differential scanning calorimetry (DSC) of sorbitol grades
Type: physicochemical
Conditions: sorbitol grades used as binder
Experimental: Different grades of sorbitol were then investigated in order to further reduce the energy required to generate good water soluble granules. Samples were analyzed via differential scanning calorimetry (DSC) in order to determine the sorbitol grade with the lowest melt energy. When using sorbitol grade Xtab300S (available at Roquette®) as a binder, the energy required to generate good water-soluble granules is lower than the other grades (cf. Table below).

With OC[C@@H](O)[C@@H](O)[C@H](O)[C@@H](O)CO [Xtab300S, sorbitol] the “Melt Energy” value was 126.5 J/g.
For OC[C@@H](O)[C@@H](O)[C@H](O)[C@@H](O)CO [Xtab200S, sorbitol], the “Melt Energy” value was 161.7 J/g.
With OC[C@@H](O)[C@@H](O)[C@H](O)[C@@H](O)CO [Example P300C, sorbitol] the “Melt Energy” value was 180.3 J/g.
In the case of OC[C@@H](O)[C@@H](O)[C@H](O)[C@@H](O)CO [Example P650C, sorbitol], the “Melt Energy” value is reported as 174.9 J/g.
For OC[C@@H](O)[C@@H](O)[C@H](O)[C@@H](O)CO [Example P100C, sorbitol], the “Melt Energy” value was 181.9 J/g.
In the case of OC[C@@H](O)[C@@H](O)[C@H](O)[C@@H](O)CO [Example P550SD, sorbitol], the “Melt Energy” value is reported as 165.1 J/g.

Reference: patent US20240423925A1, “GRANULE COMPRISING ENCAPSULATED ACTIVE INGREDIENTS” (DSM IP ASSETS B.V., priority 2021, published 2024)
